Test results from patent US20050153870A1, “Medicinal composition for diagnosis, prevention, or therapy of multiple risk factor syndrome” (priority 2002, published 2005).
Marks after values point to notes of the source that are not given here.

Columns and labels:
[1] = test system: Mouse, rat, beagle dog, quail, DOCA hypertension rat; experiment: Serum cholesterol decreasing effect; assay type: in vivo; conditions: incl. rat and quail raised with hyperfat feed
Protocol: The quails are raised by giving a feed containing 2% cholesterol for 9 months to develop hypercholesteremia, and, in the case of the rats, mineral corticoid and saline are administered to allow them to develop heart and blood vessel disease and then hypercholesteremia.

Lean = experiment: Body weight and blood sugar in Lean mice (Example 7); assay type: in vivo, mouse; conditions: for Body weight / Blood sugar level: in feed for a week (MAC 0.05%, AS-103 0.05%, AR-610 0.1%, AF 0.4%, AC 0.05%); for Body weight: control group 20.9 ± 0.8; for Blood sugar level: control group 211.2 ± 7.8; for Blood sugar level, change vs control group / Body weight, change vs control group: in feed for a week, contents as in table
Protocol: [The procedure below names another variant; the source lists this variant under the same test.] (§1) Powered feed to which ascofuranone (AF) and ascochlorin (AC) as well as its derivatives, 4-0-methylascochlorin (MAC), 4-0-carboxymethylascochlorin (AS-6), and 4-0-nicotinoyl ascochlorin (AS-103) were added to feed at the proportions shown in the table, and the feed were given to db/db mice for a week and then analyzed for blood sugar decreasing effect (8 mice/group).

[2] = test system: SHR rat of high-incidence fat deposition group; experiment: Fat deposition on the mesenteric artery; assay type: in vivo; conditions: perorally
db/db mice = experiment: Blood sugar decreasing effect in db/db mice (Example 7); assay type: in vivo, mouse; conditions: for Body weight / Blood sugar level: in feed for a week (MAC 0.05%, AS-103 0.05%, AR-610 0.1%, AF 0.4%, AC 0.05%); for Body weight: control group 44.6 ± 0.9; for Blood sugar level: control group 549.8 ± 21.8; for Blood sugar level, change vs control group / Body weight, change vs control group: in feed for a week, contents as in table
Protocol: as §1

Mouse = experiment: Appetite suppressing effect; assay type: in vivo; conditions: mouse fasted 48 hours; 1 to 2 mg/kg perorally one hour before feeding; feed given for 2 hours
Anesthetized rat = experiment: Blood pressure decreasing effect, acute test; assay type: in vivo; conditions: 2 mg/kg perorally
Protocol: Compounds of this series has an antihypertensive effect in various types of test animal models. The antihypertensive effect is confirmed not only in an acute test, in which arterial blood pressure of anesthetized rats and dogs is measured, but also in a chronic test using DOCA hypertensive rats, which are prepared by excising one of the kidneys and administering mineral corticoid and saline thereto, naturally-occurring hypertensive rats, which is an animal morbid model of essential hypertensive disease, and ob/ob mice, which are hereditary diabetic obese […].

Rat = experiment: Glucogenesis in the liver; assay type: in vivo; conditions: perorally
Text: Compounds of this series suppresses hepatic glucogenesis which is induced by administration of dexamethazon to a rat. For this reason, it antagonizes the action of glucocorticoid in vivo. The compound further has an effect of suppressing steroid diabetes characterized by polydipsia and polyurea and urine sugar excretion induced by administering cortisol to a rat. […] These facts strongly support that compounds of this series is useful in preventing and/or treating visceral fat syndrome.

Structure (SMILES)	serum cholesterol decreasing effect [1]	Body weight (Lean)	Blood sugar level (Lean)	Blood sugar level, change vs control group (Lean)	Body weight, change vs control group (Lean)	fat deposition in a ring form on the mesenteric artery [2]	Body weight (db/db mice)	Blood sugar level (db/db mice)	Blood sugar level, change vs control group (db/db mice)	Body weight, change vs control group (db/db mice)	amount of feed (appetite suppressing effect) (Mouse)	decrease of average blood pressure of the carotid artery (Anesthetized rat)	glucogenesis performed in the liver (Rat)
C/C(=C\Cc1c(O)c(Cl)c(C)c(C=O)c1O)CC/C=C(\C)[C@@H]1CC(=O)C(C)(C)O1 [AF, ascofuranone]	carboxymethylascochlorin, and ascofuranone exhibits an effect of decreasing serum	21.8 ± 0.4 g	161.1 ± 8.3 mg/dL	−23.7%**	ns	mesenteric artery, disappearance of fat deposition is accelerated.	44.8 ± 1.4 g	385.5 ± 40.9 mg/dL	−29.9%**	ns			
CC(/C=C/[C@@]1(C)[C@H](C)CCC(=O)[C@@H]1C)=C\Cc1c(O)c(Cl)c(C)c(C=O)c1O [AC, ascochlorin]	carboxymethylascochlorin, and ascofuranone exhibits an effect of decreasing serum	16.1 ± 0.3 g	184.8 ± 10.9 mg/dL	−12.5%**	−23.0%**		38.9 ± 1.8 g	262.1 ± 11.8 mg/dL	−52.3%**	−12.8%**	feed is suppressed in a dose dependent manner.	decreases by 20 to 30 mmHg.	performed in the liver is suppressed.
CC(/C=C/C1(C)C(C)CCC(=O)C1C)=C\Cc1c(O)c(C=O)c(C)c(Cl)c1OC(=O)c1cccnc1 (stereo not drawn) [AS-103, 4-0-nicotinoyl ascochlorin]		18.4 ± 0.3 g	181.8 ± 7.6 mg/dL	−13.9%*	−12.0%**		42.0 ± 1.9 g	331.3 ± 45.2 mg/dL	−39.7%**	ns			
